Experimental data: US20080308744A1 (Beth Israel Deaconess Medical Center, priority 2003, published 2008)

What was measured:
[1] = in DMSO; cited from earlier work
[2] = Fluorescence spectrometry: relative fluorescent yield of 800 nm contrast agents; assay type: physicochemical
Description: The performance of these agents in rat and pig model systems of SLN mapping for the skin, gastrointestinal tract and lung were also quantitated.
All of the samples were diluted with PBS, pH7.8, or with 100% FBS according to absorbance at λmax using 1-cm path length quartz spectrometer cell, and excited at 770 nm. Fluorescence was measured by calculating the area under the curve of the intensity from 785 nm to 950 nm subtracting the fluorescence of control PBS, pH 7.8.

[3] = Behaviour of the free dye in blood (description); settings: small molecule form
[4] = Quantum yield measurements; assay type: physicochemical; settings: compared to QD

For `CC1(C)C(/C=C/C=C/C=C/C=C2\N(CCCCS(=O)(=O)O)c3ccc4ccccc4c3C2(C)C)=[N+](CCCCS(=O)(=O)[O-])c2ccc3ccccc3c21` [ICG, indocyanine green], the “quantum yield (control)” value [1] is given as 13%, the “relative per molecule fluorescent yield to QDs” value ([2]; in 100% fetal bovine serum) is given as 0.4 and the “relative per molecule fluorescent yield to QDs” value ([2]; in phosphate-buffered saline) is given as 0.1. For the same molecule, the solubility in blood [3] was “somewhat less soluble in blood” and the “in vivo early half-life” value was “shorter half-life”.

In the case of `CC1(C)C(/C=C/C2=C(Oc3ccc(S(=O)(=O)O)cc3)C(=C/C=C3/N(CCCCS(=O)(=O)O)c4ccc(S(=O)(=O)[O-])cc4C3(C)C)/CCC2)=[N+](CCCCCC(=O)O)c2ccc(S(=O)(=O)O)cc21` [800CW], the quantum yield ([4]; in FBS) is reported as “rather higher”, the quantum yield ([4]; in PBS) is reported as “same as that of QD” and the “relative per molecule fluorescent yield to QDs” value ([2]; in 100% fetal bovine serum) is reported as 1.0. The “relative per molecule fluorescent yield to QDs” value ([2]; in phosphate-buffered saline) was 0.4.
